Consider twelve compounds from US11046699B2, “Pyrazolo-pyrimidin-amino-cycloalkyl compounds and their therapeutic uses” (RAPT THERAPEUTICS, INC., priority 2018, dated 2021).

In the test the target is GCN2 (Homo sapiens, UniProt Q9P2K8). Kind of test: GCN2 enzymatic endpoint assay: phosphorylation of GFP-eIF2α measured by TR-FRET (Lanthascreen). It counts as biochemical. The procedure: The Enzymatic assay was run as an endpoint assay to quantify the activity of the serine/threonine GCN2 kinase by way of measuring phosphorylation of its natural substrate, eiF2α.
Sequence of GCN2 (Q9P2K8 whole entry): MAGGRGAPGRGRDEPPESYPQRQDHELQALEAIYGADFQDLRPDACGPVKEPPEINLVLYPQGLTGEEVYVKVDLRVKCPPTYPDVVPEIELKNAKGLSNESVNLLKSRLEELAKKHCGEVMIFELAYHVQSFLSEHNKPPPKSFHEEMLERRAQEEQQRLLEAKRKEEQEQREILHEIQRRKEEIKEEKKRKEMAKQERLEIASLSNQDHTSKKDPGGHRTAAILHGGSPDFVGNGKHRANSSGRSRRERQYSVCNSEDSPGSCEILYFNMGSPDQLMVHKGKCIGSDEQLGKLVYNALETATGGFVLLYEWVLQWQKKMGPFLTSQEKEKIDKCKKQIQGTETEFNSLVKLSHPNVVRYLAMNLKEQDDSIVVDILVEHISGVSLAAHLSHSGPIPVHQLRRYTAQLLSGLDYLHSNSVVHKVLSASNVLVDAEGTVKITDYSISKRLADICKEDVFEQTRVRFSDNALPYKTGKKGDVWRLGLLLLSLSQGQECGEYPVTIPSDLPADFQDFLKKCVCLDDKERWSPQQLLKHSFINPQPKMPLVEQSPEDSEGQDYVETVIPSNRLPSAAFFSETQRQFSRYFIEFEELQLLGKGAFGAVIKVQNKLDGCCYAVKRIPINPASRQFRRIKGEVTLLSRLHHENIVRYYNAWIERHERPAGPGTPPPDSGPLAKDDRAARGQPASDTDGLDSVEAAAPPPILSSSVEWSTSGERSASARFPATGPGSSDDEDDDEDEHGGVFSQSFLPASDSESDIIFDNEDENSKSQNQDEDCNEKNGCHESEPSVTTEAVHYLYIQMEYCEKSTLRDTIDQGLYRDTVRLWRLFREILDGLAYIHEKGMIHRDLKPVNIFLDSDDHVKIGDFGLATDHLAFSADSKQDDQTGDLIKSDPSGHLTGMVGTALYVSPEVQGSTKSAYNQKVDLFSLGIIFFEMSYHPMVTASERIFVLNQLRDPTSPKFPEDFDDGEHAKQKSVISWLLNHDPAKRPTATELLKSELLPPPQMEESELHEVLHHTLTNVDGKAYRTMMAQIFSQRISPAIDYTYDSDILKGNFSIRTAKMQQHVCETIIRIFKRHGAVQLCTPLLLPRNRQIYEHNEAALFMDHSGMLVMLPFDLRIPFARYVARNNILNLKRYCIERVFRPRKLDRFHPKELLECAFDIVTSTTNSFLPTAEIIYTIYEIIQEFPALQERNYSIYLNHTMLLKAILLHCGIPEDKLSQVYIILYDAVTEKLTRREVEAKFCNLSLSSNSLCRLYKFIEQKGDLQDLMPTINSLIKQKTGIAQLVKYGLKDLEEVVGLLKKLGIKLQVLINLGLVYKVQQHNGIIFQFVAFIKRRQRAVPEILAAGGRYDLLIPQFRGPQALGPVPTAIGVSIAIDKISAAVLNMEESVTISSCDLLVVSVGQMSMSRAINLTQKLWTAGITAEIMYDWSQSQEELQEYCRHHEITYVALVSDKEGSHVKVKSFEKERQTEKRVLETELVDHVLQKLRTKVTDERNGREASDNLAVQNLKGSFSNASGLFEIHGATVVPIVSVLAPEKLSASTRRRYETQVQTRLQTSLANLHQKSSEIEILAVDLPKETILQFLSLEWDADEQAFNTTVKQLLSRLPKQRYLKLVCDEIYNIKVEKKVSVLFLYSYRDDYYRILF
The enzymatic reaction was initiated by incubating with 2 μM ATP and 80 nM of GFP labeled eiF2a substrate at room temperature and then stopped after 90 minutes with EDTA. The amount of phosphorylated eIF2α is determined by TR-FRET (Lanthascreen). A terbium labeled antibody associates with the phosphorylated substrate resulting in an increased TR-FRET value. Activity was calculated as the ratio of the acceptor (fluorescein) signal at 520 nm wavelength to the donor (terbium) signal 495 nm. The amount of antibody that is bound to the tracer is directly proportional to the amount of phosphorylated substrate present, and in this manner, kinase activity can be detected and measured by an increase in the TR-FRET value.
Compound addition by D300
5 μL enzyme solution in assay buffer
5 μL substrate/ATP mixture in assay buffer
5 μL stop/detection mix in antibody dilution buffer

Setting [1] is: tested as described in Example 77, compound and/or hydrochloride, dihydrochloride or trifluoroacetic acid salt, read-out: IC 50 Activity.

Like-named read-outs stand apart in the source and are kept apart here. Where only a bound is given, the exact number is not on record here.

For the compound `Cc1nnc(-c2ccc(-n3nc(Br)c4cnc(N[C@@H]5CC[C@@](C)(O)C5)nc43)cc2CCC#N)s1` [Example 76, 3-(5-(3-bromo-6-(((1R,3R)-3-hydroxy-3-methylcyclopentyl)amino)-1H-pyrazolo[3,4-d]pyrimidin-1-yl)-2-(5-methyl-1,3,4-thiadiazol-2-yl)phenyl)propanenitrile], the IC50 (GCN2 biochemical IC50, 4 nM GCN2, 2 μM ATP, 80 nM GFP-eIF2α, 90 min RT, read-out: GCN2 activity) fell in the range of 25 to 200 nM.
`O=C(N[C@H]1C[C@H](O)C1)[C@@H]1CC[C@@H](Nc2ncc3c(Br)nn(-c4cc(F)c5ncccc5c4)c3n2)C1`: under setting [1], the IC50 lay in the range of 25 to 200 nM.
For `N#Cc1cc(-n2nc(Br)c3cnc(N[C@@H]4CC[C@@H](C(=O)N5CCN(C(=O)C6CC6)CC5)C4)nc32)cc2cccnc12` [6-(3-bromo-6-(((1R,3R)-3-(4-(cyclopropanecarbonyl)piperazine-1-carbonyl)cyclopentyl)amino)-1H-pyrazolo [3,4-d]pyrimidin-1-yl)quinoline-8-carbonitrile], the IC50 under setting [1] was in the range of 25 to 200 nM.
Take `CNC(=O)[C@]1(C)CC[C@@H](Nc2ncc3c(Br)nn(-c4cc(CNCCOC)cc(OC(F)(F)F)c4)c3n2)C1` [(1R,3R)-3-[[3-bromo-1-[3-[(2-methoxy-ethylamino)methyl]-5-(trifluoromethoxy)phenyl]pyrazolo[3,4-d]pyrimidin-6-yl]amino]-N,1-dimethyl-cyclopentanecarboxamide]: the IC50 under setting [1] is 25 to 200 nM.
On the same count and under the same terms, as for `O=C([C@@H]1CC[C@@H](Nc2ncc3c(Br)nn(-c4ccc5ncccc5c4)c3n2)C1)N1CCOCC1` [((1R,3R)-3-((3-bromo-1-(quinolin-6-yl)-1H-pyrazolo[3,4-d]pyrimidin-6-yl)amino)cyclo-pentyl)(morpholino)methanone], the figure is 25 to 200 nM.
Regarding `C[C@H]1CN(C(=O)[C@@H]2CC[C@@H](Nc3ncc4c(Br)nn(-c5ccc6ncccc6c5)c4n3)C2)C[C@H](C)N1` [((1R,3R)-3-((3-bromo-1-(quinolin-6-yl)-1H-pyrazolo[3,4-d]pyrimidin-6-yl)amino)cyclo-pentyl)((3S,5S)-3,5-dimethylpiperazin-1-yl)methanone], the IC50 under setting [1] is 25 to 200 nM.
Regarding `CCC(=O)N1CCN(C(=O)[C@@H]2CC[C@@H](Nc3ncc4c(Br)nn(-c5cc(F)c6ncccc6c5)c4n3)C2)C1` [1-[3-[(1R,3R)-3-[[3-bromo-1-(8-fluoro-6-quinolyl)pyrazolo[3,4-d]pyrimidin-6-yl]amino]cyclopentanecarbonyl]imidazolidin-1-yl]propan-1-one], the IC50 under setting [1] was less than 25 nM.
For the compound `O=C1CN(C(=O)[C@@H]2CC[C@@H](Nc3ncc4c(Br)nn(-c5cc(F)c6ncccc6c5)c4n3)C2)CC(=O)N1` [4-((1R,3R)-3-((3-bromo-1-(8-fluoroquinolin-6-yl)-1H-pyrazolo[3,4-d]pyrimidin-6-yl)amino)cyclopentane-1-carbonyl)piperazine-2,6-dione], the IC50 under setting [1] is less than 25 nM.
Regarding `CNC(=O)[C@]1(C)CC[C@@H](Nc2ncc3c(Br)nn(-c4ccc(-c5ncco5)c(C5CCNCC5)c4)c3n2)C1` [(1R,3R)-3-[[3-bromo-1-[4-oxazol-2-yl-3-(4-piperidyl)phenyl]pyrazolo[3,4-d]pyrimidin-6-yl]amino]-N,1-dimethyl-cyclopentanecarboxamide], under setting [1], the IC50 was in the range of 25 to 200 nM.
On to `O=C(NCCc1cnc[nH]1)[C@@H]1CC[C@@H](Nc2ncc3c(Br)nn(-c4cc(F)c5ncccc5c4)c3n2)C1` [(1R,3R)-N-(2-(1H-imidazol-5-yl)ethyl)-3-((3-bromo-1-(8-fluoroquinolin-6-yl)-1H-pyrazolo [3,4-d]pyrimidin-6-yl)amino)cyclopentane-1-carboxamide], for which, under setting [1], the IC50 lay within 25 to 200 nM.
Regarding `CNC(=O)[C@@]1(CC(F)F)CC[C@@H](Nc2ncc3c(Br)nn(-c4cc(CCO)c5ncccc5c4)c3n2)C1` [(1S,3R)-3-[[3-bromo-1-[8-(2-hydroxyethyl)-6-quinolyl]pyrazolo[3,4-d]pyrimidin-6-yl]amino]-1-(2,2-difluoroethyl)-N-methyl-cyclopentanecarboxamide], the IC50 under setting [1] fell in the range of 25 to 200 nM.
For the compound `CNC(=O)[C@]1(C)CC[C@@H](Nc2ncc3c(Br)nn(-c4cc(Cl)c(F)c(CC#N)c4)c3n2)C1`, under setting [1], the IC50 fell in the range of 25 to 200 nM.
